Measurements from paper PMC9481570, “A small molecule antagonist of SMN disrupts the interaction between SMN and RNAP II” (Nature Communications, 2022).
Several values for one entry are separate records, joined by “and”; a condition that tells them apart may be missing. Identical values can stand only once.

How the values were obtained:
Experiment in all cases: Affinity-purification and mass spectrometry (AP-MS) chemical proteomics, all proteins;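 as to Difference: 200 µM free competitor with 20 µM biotin probe overnight in lysate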
Type in all cases: binding
[1] = test system: proteins displaced from immobilized biotin-Cmpd 1 pulldowns (U2OS cell lysate); details: Cmpd minus DMSO
[2] = target: T1, proteins displaced from immobilized biotin-Cmpd 1 pulldowns (U2OS cell lysate) (Homo sapiens, UniProt Q9UNF1); details: GN=MAGED2 (Q9UNF1)
T1 construct: endogenous in cells; host or cells: U2OS

[3] = target: T2, proteins displaced from immobilized biotin-Cmpd 1 pulldowns (U2OS cell lysate) (Homo sapiens, UniProt P62910); details: GN=RPL32 (P62910)
T2 construct: endogenous in cells; host or cells: U2OS

[4] = target: T3, proteins displaced from immobilized biotin-Cmpd 1 pulldowns (U2OS cell lysate) (Homo sapiens, UniProt O75616); details: GN=ERAL1 (O75616)
T3 construct: endogenous in cells; host or cells: U2OS

[5] = target: T4, proteins displaced from immobilized biotin-Cmpd 1 pulldowns (U2OS cell lysate) (Homo sapiens, UniProt P49368); details: GN=CCT3 (P49368)
T4 construct: endogenous in cells; host or cells: U2OS

[6] = target: T5, proteins displaced from immobilized biotin-Cmpd 1 pulldowns (U2OS cell lysate) (Homo sapiens, UniProt Q13573); details: GN=SNW1 (Q13573)
T5 construct: endogenous in cells; host or cells: U2OS

[7] = target: T6, proteins displaced from immobilized biotin-Cmpd 1 pulldowns (U2OS cell lysate) (Homo sapiens, UniProt Q08945); details: GN=SSRP1 (Q08945)
T6 construct: endogenous in cells; host or cells: U2OS

[8] = target: T7, proteins displaced from immobilized biotin-Cmpd 1 pulldowns (U2OS cell lysate) (Homo sapiens, UniProt Q96DA0); details: GN=ZG16B (Q96DA0)
T7 construct: endogenous in cells; host or cells: U2OS

[9] = target: T8, proteins displaced from immobilized biotin-Cmpd 1 pulldowns (U2OS cell lysate) (Homo sapiens, UniProt Q02880); details: GN=TOP2B (Q02880)
T8 construct: endogenous in cells; host or cells: U2OS
T8 sequence (Q02880 whole entry): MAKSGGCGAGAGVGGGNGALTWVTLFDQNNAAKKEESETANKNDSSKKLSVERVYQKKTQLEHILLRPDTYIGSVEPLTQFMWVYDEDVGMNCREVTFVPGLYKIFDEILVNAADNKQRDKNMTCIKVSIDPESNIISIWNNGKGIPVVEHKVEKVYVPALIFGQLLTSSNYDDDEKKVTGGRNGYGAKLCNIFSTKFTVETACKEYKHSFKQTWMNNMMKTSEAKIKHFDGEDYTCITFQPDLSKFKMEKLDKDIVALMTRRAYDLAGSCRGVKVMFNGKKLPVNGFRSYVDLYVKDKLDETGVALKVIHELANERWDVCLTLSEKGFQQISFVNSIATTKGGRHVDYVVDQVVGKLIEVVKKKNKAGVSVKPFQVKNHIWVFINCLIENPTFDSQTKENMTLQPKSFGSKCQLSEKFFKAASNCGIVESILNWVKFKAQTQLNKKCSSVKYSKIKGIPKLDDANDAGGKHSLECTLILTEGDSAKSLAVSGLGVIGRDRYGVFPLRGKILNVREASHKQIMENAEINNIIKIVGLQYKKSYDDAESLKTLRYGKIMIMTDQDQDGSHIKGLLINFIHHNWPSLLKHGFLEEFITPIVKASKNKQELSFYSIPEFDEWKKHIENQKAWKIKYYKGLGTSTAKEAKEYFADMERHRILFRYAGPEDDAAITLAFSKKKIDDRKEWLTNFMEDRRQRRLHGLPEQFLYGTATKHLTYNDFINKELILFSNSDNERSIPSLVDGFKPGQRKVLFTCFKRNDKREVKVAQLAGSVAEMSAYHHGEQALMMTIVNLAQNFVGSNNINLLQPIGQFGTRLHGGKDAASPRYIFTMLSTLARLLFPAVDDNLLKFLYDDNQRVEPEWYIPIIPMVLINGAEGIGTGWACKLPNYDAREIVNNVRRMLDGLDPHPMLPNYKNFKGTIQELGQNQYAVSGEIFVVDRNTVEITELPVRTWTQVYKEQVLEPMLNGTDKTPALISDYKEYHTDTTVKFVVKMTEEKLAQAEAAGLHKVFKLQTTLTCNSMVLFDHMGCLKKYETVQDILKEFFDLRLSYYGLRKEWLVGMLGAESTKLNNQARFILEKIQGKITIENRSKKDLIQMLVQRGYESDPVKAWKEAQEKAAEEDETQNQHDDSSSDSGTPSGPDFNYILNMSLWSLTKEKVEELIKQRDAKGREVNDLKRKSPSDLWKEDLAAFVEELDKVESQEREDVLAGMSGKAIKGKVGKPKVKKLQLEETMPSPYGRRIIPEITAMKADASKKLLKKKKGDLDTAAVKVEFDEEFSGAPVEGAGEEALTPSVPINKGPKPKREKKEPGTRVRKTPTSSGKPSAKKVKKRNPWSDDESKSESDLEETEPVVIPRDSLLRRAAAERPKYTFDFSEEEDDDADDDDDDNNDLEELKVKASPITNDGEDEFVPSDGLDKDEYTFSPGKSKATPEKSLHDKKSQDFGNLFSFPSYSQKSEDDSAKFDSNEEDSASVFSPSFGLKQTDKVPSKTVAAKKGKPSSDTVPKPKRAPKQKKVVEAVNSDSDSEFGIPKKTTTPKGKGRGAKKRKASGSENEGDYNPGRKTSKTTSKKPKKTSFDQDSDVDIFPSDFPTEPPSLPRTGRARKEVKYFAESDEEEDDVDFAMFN

T7 sequence (Q96DA0 17-172): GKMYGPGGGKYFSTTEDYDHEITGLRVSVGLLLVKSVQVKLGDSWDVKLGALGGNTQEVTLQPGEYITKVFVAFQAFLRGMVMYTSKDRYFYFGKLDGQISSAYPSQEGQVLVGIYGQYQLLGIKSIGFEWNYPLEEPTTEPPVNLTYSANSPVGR
T6 sequence (Q08945 whole entry): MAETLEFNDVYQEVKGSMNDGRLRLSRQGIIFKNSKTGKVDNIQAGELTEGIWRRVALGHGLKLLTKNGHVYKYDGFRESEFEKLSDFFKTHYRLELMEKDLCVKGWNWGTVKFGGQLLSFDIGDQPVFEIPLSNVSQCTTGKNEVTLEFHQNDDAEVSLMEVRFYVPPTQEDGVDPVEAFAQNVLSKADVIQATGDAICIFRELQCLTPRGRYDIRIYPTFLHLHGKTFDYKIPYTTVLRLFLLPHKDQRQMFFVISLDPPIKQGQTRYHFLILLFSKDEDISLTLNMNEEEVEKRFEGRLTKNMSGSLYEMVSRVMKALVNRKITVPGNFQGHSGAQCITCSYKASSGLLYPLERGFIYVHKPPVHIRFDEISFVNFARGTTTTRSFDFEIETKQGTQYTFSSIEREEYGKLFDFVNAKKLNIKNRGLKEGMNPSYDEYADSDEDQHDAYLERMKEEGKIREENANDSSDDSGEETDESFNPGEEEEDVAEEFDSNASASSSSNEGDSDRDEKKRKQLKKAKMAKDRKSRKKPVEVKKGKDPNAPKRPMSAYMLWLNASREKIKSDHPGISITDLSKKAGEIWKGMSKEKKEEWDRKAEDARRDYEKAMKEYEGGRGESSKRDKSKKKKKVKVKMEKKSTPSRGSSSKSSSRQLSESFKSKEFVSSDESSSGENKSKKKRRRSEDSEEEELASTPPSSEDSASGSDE
T4 sequence (P49368 whole entry): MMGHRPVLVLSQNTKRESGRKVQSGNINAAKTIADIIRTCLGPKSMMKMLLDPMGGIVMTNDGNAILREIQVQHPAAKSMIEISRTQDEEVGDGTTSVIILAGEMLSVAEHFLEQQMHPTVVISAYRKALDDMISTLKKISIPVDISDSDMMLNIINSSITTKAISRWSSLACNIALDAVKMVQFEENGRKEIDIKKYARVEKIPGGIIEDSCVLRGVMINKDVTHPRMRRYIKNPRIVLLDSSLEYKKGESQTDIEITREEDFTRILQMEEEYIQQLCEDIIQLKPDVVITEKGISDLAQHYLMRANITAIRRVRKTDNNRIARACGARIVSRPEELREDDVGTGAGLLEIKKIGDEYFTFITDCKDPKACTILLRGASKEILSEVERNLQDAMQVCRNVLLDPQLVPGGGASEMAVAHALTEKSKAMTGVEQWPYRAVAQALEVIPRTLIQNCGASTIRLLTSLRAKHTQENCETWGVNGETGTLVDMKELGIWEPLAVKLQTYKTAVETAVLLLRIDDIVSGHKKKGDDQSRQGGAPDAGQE
T3 sequence (O75616 44-437): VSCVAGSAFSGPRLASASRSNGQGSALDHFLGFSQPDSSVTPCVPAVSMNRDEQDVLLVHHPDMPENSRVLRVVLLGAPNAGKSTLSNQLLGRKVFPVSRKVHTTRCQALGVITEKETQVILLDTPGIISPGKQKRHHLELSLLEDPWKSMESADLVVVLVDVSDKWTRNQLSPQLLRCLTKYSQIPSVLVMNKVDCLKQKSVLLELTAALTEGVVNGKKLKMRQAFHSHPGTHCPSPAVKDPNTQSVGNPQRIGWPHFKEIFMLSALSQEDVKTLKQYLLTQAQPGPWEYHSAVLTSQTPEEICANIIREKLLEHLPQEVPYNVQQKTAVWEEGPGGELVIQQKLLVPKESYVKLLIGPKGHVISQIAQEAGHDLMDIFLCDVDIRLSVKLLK
T5 sequence (Q13573 whole entry): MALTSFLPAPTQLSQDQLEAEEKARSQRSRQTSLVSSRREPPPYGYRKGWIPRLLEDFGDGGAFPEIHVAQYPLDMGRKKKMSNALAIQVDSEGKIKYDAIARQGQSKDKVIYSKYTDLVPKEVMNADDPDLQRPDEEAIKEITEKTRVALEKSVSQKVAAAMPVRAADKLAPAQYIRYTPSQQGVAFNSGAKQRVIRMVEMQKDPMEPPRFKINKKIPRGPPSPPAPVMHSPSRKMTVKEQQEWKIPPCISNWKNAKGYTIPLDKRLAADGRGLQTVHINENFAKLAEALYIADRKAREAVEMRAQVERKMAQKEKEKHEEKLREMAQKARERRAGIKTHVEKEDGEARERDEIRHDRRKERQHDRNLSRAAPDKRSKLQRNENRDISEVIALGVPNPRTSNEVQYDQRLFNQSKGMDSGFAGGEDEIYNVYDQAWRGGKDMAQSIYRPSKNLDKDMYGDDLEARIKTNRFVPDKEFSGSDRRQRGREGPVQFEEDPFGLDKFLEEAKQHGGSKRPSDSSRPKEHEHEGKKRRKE
T1 sequence (Q9UNF1 whole entry): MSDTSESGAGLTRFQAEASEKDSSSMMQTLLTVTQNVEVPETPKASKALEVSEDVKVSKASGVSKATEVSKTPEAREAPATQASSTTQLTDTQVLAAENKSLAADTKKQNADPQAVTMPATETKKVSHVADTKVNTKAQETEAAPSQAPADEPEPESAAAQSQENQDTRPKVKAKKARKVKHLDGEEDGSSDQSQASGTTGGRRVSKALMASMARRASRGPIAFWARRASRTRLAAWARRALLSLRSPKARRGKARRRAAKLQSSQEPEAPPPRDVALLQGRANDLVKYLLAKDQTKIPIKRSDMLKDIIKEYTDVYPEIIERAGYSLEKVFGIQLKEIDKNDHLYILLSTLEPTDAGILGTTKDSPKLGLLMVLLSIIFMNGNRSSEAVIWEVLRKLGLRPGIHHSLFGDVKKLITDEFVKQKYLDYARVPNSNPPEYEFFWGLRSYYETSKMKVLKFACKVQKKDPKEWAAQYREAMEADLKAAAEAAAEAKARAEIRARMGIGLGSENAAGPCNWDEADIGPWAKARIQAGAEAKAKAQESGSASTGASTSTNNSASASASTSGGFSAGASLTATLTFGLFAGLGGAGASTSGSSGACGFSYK

## Cn1c2c(c(=N)c3c1CCC3)CCC2 [Compound 1, 4-methyl-2,3,4,5,6,7-hexahydrodicyclopenta[b,e]pyridin-8(1H)-imine]
[1]; GN=ACTA1/ACTC1 (P68133;P68032;P63267;P62736), -LOG(P-value) 1.19415
  Difference: -2.469
[1]; GN=FXR1 (P51114;P51116 FXR2), -LOG(P-value) 0.714644
  Difference: 1.56
[1]; GN=MYL1/MYL3 (P05976;P08590), -LOG(P-value) 0.754366
  Difference: -4.118
[1]; GN=RGPD4/RGPD3 (Q7Z3J3;A6NKT7;P49792), -LOG(P-value) 1.07048
  Difference: -0.9439
[1]; GN=TUBB2A/TUBB2B (Q13885;Q9BVA1), -LOG(P-value) 2.56756
  Difference: 3.9801
[2]; Cmpd minus DMSO, -LOG(P-value) 0.822167
  Difference: 0.7403
[2]; replicates 1-3
  iBAQ Cmpd: 20.5058 and 20.3034 and 20.4789
[3]; Cmpd minus DMSO, -LOG(P-value) 0.742167
  Difference: 3.21
[3]; replicates 1-3
  iBAQ Cmpd: 19.3082 and 19.1191 and 19.5272
[4]; Cmpd minus DMSO, -LOG(P-value) 0.929321
  Difference: 2.334
[4]; replicates 1-3
  iBAQ Cmpd: 17.6381 and 15.7018 and 17.9385
[5]; Cmpd minus DMSO, -LOG(P-value) 0.937615
  Difference: 0.5386
[5]; replicates 1-3
  iBAQ Cmpd: 20.7218 and 21.2363 and 20.6211
[6]; Cmpd minus DMSO, -LOG(P-value) 1.77748
  Difference: 2.177
[6]; replicates 1-3
  iBAQ Cmpd: 17.1233 and 17.0397 and 16.2301
[7]; Cmpd minus DMSO, -LOG(P-value) 0.732843
  Difference: 0.3628
[7]; replicates 1-3
  iBAQ Cmpd: 19.198 and 18.7704 and 18.706
[8]; Cmpd minus DMSO, -LOG(P-value) 1.41535
  Difference: -4.273
[8]; replicates 1-3
  iBAQ Cmpd: 15.4223 and 14.7351 and 17.7658
[9]; Cmpd minus DMSO, -LOG(P-value) 0.742976
  Difference: 1.036
[9]; replicates 1-3
  iBAQ Cmpd: 16.8685 and 16.1972 and 16.6057
